Consider 13 compounds from patent US12528826B2, “[1,4]oxazepino[2,3-c]quinolinone derivatives as BCL6 inhibitors” (Cancer Research Technology Limited, priority 2019, dated 2026).

For the test, the target named is T1, Trx-6×His-BCL6 (human BCL6 BTB domain covering amino-acid sequence 5-129) (Homo sapiens, UniProt P41182).
T1 construct: made in house
The test is described as follows: HTRF assay (BCL6 / BCOR peptide). To be noted: 1 nM Trx-6×His-BCL6, 300 nM BCOR-AF633 peptide, 2 hours incubation at room temperature; read-out: HTRF avg pIC50 (converted). The format is binding. Here is the method: After 2 hours incubation at room temperature the plate was read on a Pherastar FSX (BMG Labtech) plate reader equipped with 337 nm laser excitation filter, a first emission filter at 620 nm and a second emission filter at 665 nm. The % inhibition at each concentration was calculated by normalising FRET ratio to the appropriate high (DMSO with all reagents) and low (DMSO without BCL6) controls.

Consider `Cn1c(=O)c2c(c3cc(Nc4nc(N5CC[C@@H](F)[C@@H](F)C5)ncc4Cl)ccc31)N[C@@H](C1CC1)C(F)(F)CO2` (racemic) [Example 10a, (S)-10-((5-chloro-2-((3S,4R)-3,4-difluoropiperidin-1-yl)pyrimidin-4-yl)amino)-2-cyclopropyl-3,3-difluoro-7-methyl-1,2,3,4-tetrahydro-[1,4]oxazepino[2,3-c]quinolin-6(7H)-one; (S)-10-((5-chloro-2-((3R,4S)-3,4-difluoropiperidin-1-yl)pyrimidin-4-yl)amino)-2-cyclopropyl-3,3-difluoro-7-methyl-1,2,3,4-tetrahydro-[1,4]oxazepino[2,3-c]quinolin-6(7H)-one], for which the IC50 is 12.3 nM.

In the case of `Cn1c(=O)c2c(c3cc(Nc4nc(N5CC[C@@H](F)[C@H](F)C5)ncc4Cl)ccc31)N[C@@H](C1CC1)C(F)(F)CO2` (racemic) [Example 10b, (S)-10-((5-chloro-2-((3S,4S)-3,4-difluoropiperidin-1-yl)pyrimidin-4-yl)amino)-2-cyclopropyl-3,3-difluoro-7-methyl-1,2,3,4-tetrahydro-[1,4]oxazepino[2,3-c]quinolin-6(7H)-one; (S)-10-((5-chloro-2-((3R,4R)-3,4-difluoropiperidin-1-yl)pyrimidin-4-yl)amino)-2-cyclopropyl-3,3-difluoro-7-methyl-1,2,3,4-tetrahydro-[1,4]oxazepino[2,3-c]quinolin-6(7H)-one], the IC50 was 15.8 nM. For the compound `COC1CCCN(c2ncc(Cl)c(Nc3ccc4c(c3)c3c(c(=O)n4C)OCC(F)(F)[C@H](C4CC4)N3)n2)C1` (mixture of isomers) [Example 10c, (S)-10-((5-chloro-2-((R)-3-methoxypiperidin-1-yl)pyrimidin-4-yl)amino)-2-cyclopropyl-3,3-difluoro-7-methyl-1,2,3,4-tetrahydro-[1,4]oxazepino[2,3-c]quinolin-6(7H)-one; (S)-10-((5-chloro-2-((S)-3-methoxypiperidin-1-yl)pyrimidin-4-yl)amino)-2-cyclopropyl-3,3-difluoro-7-methyl-1,2,3,4-tetrahydro-[1,4]oxazepino[2,3-c]quinolin-6(7H)-one], the IC50 was 5.01 nM. Consider `Cn1c(=O)c2c(c3cc(Nc4nc(N5CC[C@@H](F)[C@@H](F)C5)ncc4F)ccc31)N[C@@H](C1CC1)C(F)(F)CO2` (racemic) [Example 10d, (S)-10-((5-fluoro-2-((3S,4R)-3,4-difluoropiperidin-1-yl)pyrimidin-4-yl)amino)-2-cyclopropyl-3,3-difluoro-7-methyl-1,2,3,4-tetrahydro-[1,4]oxazepino[2,3-c]quinolin-6(7H)-one; (S)-10-((5-fluoro-2-((3R,4S)-3,4-difluoropiperidin-1-yl)pyrimidin-4-yl)amino)-2-cyclopropyl-3,3-difluoro-7-methyl-1,2,3,4-tetrahydro-[1,4]oxazepino[2,3-c]quinolin-6(7H)-one], for which the IC50 was 20.9 nM. `CCC1CCCN(c2ncc(Cl)c(Nc3ccc4c(c3)c3c(c(=O)n4C)OCC(F)(F)[C@H](C4CC4)N3)n2)C1` (mixture of isomers) [Example 11b, (S)-10-((5-chloro-2-((R)-3-ethylpiperidin-1-yl)pyrimidin-4-yl)amino)-2-cyclopropyl-3,3-difluoro-7-methyl-1,2,3,4-tetrahydro-[1,4]oxazepino[2,3-c]quinolin-6(7H)-one:(S)-10-((5-chloro-2-((S)-3-ethylpiperidin-1-yl)pyrimidin-4-yl)amino)-2-cyclopropyl-3,3-difluoro-7-methyl-1,2,3,4-tetrahydro-[1,4]oxazepino[2,3-c]quinolin-6(7H)-one (1:1)]: the IC50 was 33.1 nM. Take `CC1CCCCN(c2ncc(Cl)c(Nc3ccc4c(c3)c3c(c(=O)n4C)OCC(F)(F)[C@H](C4CC4)N3)n2)C1` (mixture of isomers) [Example 11c, (S)-10-((5-chloro-2-((R)-3-methylazepan-1-yl)pyrimidin-4-yl)amino)-2-cyclopropyl-3,3-difluoro-7-methyl-1,2,3,4-tetrahydro-[1,4]oxazepino[2,3-c]quinolin-6(7H)-one:(S)-10-((5-chloro-2-((S)-3-methylazepan-1-yl)pyrimidin-4-yl)amino)-2-cyclopropyl-3,3-difluoro-7-methyl-1,2,3,4-tetrahydro-[1,4]oxazepino[2,3-c]quinolin-6(7H)-one (1:1)]: the IC50 was 55 nM. Regarding `CC1CCCN(c2ncc(Cl)c(Nc3ccc4c(c3)c3c(c(=O)n4C)OCC(F)(F)[C@H](C4CC4)N3)n2)CC1` (mixture of isomers) [Example 11d, (S)-10-((5-chloro-2-((R)-4-methylazepan-1-yl)pyrimidin-4-yl)amino)-2-cyclopropyl-3,3-difluoro-7-methyl-1,2,3,4-tetrahydro-[1,4]oxazepino[2,3-c]quinolin-6(7H)-one:(S)-10-((5-chloro-2-((S)-4-methylazepan-1-yl)pyrimidin-4-yl)amino)-2-cyclopropyl-3,3-difluoro-7-methyl-1,2,3,4-tetrahydro-[1,4]oxazepino[2,3-c]quinolin-6(7H)-one (1:1)], the IC50 is 64.6 nM. As to `Cn1c(=O)c2c(c3cc(Nc4nc(N5CC(O)CC6(CC6)C5)ncc4Cl)ccc31)N[C@@H](C1CC1)C(F)(F)CO2` (mixture of isomers) [Example 11h, (S)-10-((5-chloro-2-((R)-7-hydroxy-5-azaspiro[2.5]octan-5-yl)pyrimidin-4-yl)amino)-2-cyclopropyl-3,3-difluoro-7-methyl-1,2,3,4-tetrahydro-[1,4]oxazepino[2,3-c]quinolin-6(7H)-one:(S)-10-((5-chloro-2-((S)-7-hydroxy-5-azaspiro[2.5]octan-5-yl)pyrimidin-4-yl)amino)-2-cyclopropyl-3,3-difluoro-7-methyl-1,2,3,4-tetrahydro-[1,4]oxazepino[2,3-c]quinolin-6(7H)-one (1:1)], the IC50 was 5.62 nM. The same measure for `COCC(C)CNc1ncc(Cl)c(Nc2ccc3c(c2)c2c(c(=O)n3C)OCC(F)(F)[C@H](C3CC3)N2)n1` (mixture of isomers) [Example 11m, (S)-10-((5-chloro-2-(((R)-3-methoxy-2-methylpropyl)amino)pyrimidin-4-yl)amino)-2-cyclopropyl-3,3-difluoro-7-methyl-1,2,3,4-tetrahydro-[1,4]oxazepino[2,3-c]quinolin-6(7H)-one:(S)-10-((5-chloro-2-(((S)-3-methoxy-2-methylpropyl)amino)pyrimidin-4-yl)amino)-2-cyclopropyl-3,3-difluoro-7-methyl-1,2,3,4-tetrahydro-[1,4]oxazepino[2,3-c]quinolin-6(7H)-one (1:1)]: 3.89 nM; for `Cn1c(=O)c2c(c3cc(Nc4nc(N5CCCC(C(F)F)C5)ncc4Cl)ccc31)N[C@@H](C1CC1)C(F)(F)CO2` (mixture of isomers) [Example 11r, (S)-10-((5-chloro-2-((R)-3-(difluoromethyl)piperidin-1-yl)pyrimidin-4-yl)amino)-2-cyclopropyl-3,3-difluoro-7-methyl-1,2,3,4-tetrahydro-[1,4]oxazepino[2,3-c]quinolin-6(7H)-one:(S)-10-((5-chloro-2-((S)-3-(difluoromethyl)piperidin-1-yl)pyrimidin-4-yl)amino)-2-cyclopropyl-3,3-difluoro-7-methyl-1,2,3,4-tetrahydro-[1,4]oxazepino[2,3-c]quinolin-6(7H)-one (1:1)]: 10 nM; for `CCC1CCN(c2ncc(Cl)c(Nc3ccc4c(c3)c3c(c(=O)n4C)OCC(F)(F)[C@H](C4CC4)N3)n2)C1` (mixture of isomers) [Example 11y, (S)-10-((5-chloro-2-((R)-3-ethylpyrrolidin-1-yl)pyrimidin-4-yl)amino)-2-cyclopropyl-3,3-difluoro-7-methyl-1,2,3,4-tetrahydro-[1,4]oxazepino[2,3-c]quinolin-6(7H)-one:(S)-10-((5-chloro-2-((S)-3-ethylpyrrolidin-1-yl)pyrimidin-4-yl)amino)-2-cyclopropyl-3,3-difluoro-7-methyl-1,2,3,4-tetrahydro-[1,4]oxazepino[2,3-c]quinolin-6(7H)-one (1:1)]: 46.8 nM. Take `Cn1c(=O)c2c(c3cc(Nc4nc(N5CCCC(C)(F)C5)ncc4Cl)ccc31)N[C@@H](C1CC1)C(F)(F)CO2` (mixture of isomers) [Example 11z, (S)-10-((5-chloro-2-((R)-3-fluoro-3-methylpiperidin-1-yl)pyrimidin-4-yl)amino)-2-cyclopropyl-3,3-difluoro-7-methyl-1,2,3,4-tetrahydro-[1,4]oxazepino[2,3-c]quinolin-6(7H)-one:(S)-10-((5-chloro-2-((S)-3-fluoro-3-methylpiperidin-1-yl)pyrimidin-4-yl)amino)-2-cyclopropyl-3,3-difluoro-7-methyl-1,2,3,4-tetrahydro-[1,4]oxazepino[2,3-c]quinolin-6(7H)-one (1:1)]: the IC50 was 13.2 nM.

On to `Cn1c(=O)c2c(c3cc(Nc4nc(N5CCC(C)(O)C5)ncc4Cl)ccc31)N[C@@H](C1CC1)C(F)(F)CO2` (mixture of isomers) [Example 12a, (S)-10-((5-chloro-2-((R)-3-hydroxy-3-methylpyrrolidin-1-yl)pyrimidin-4-yl)amino)-2-cyclopropyl-3,3-difluoro-7-methyl-1,2,3,4-tetrahydro-[1,4]oxazepino[2,3-c]quinolin-6(7H)-one:(S)-10-((5-chloro-2-((S)-3-hydroxy-3-methylpyrrolidin-1-yl)pyrimidin-4-yl)amino)-2-cyclopropyl-3,3-difluoro-7-methyl-1,2,3,4-tetrahydro-[1,4]oxazepino[2,3-c]quinolin-6(7H)-one (1:1)], for which the IC50 was 6.31 nM.
